Data: US20200246298A1, “Composition for Preventing or Treating Asthma Comprising Fatty Acid as Active Ingredient” (Dongshin University Industry-Academy Cooperation, priority 2019, published 2020)

Assays:
IgE = test: Analysis of IgE in BALF (Mouse IgE ELISA), OVA-induced asthma; assay type: in vivo, BALB/c mice; conditions: 5 days, vs OVA-sensitized group
Protocol: In test groups, the animals determined to be healthy during the acclimation period were ranked by measuring the weight, and were randomly grouped so that the average weight of each group was uniform. The animals were divided into a total of 9 groups: a control group; a control group with OVA-induced asthma; a positive control group; groups administered with each of 50 mg/kg, 125 mg/kg and 250 mg/kg of oleic acid; and groups administered with each of 5 mg/kg, 25 mg/kg and 50 mg/kg of palmitic acid. The animals were sensitized via intraperitoneal injection of OVA once a week for 2 weeks after the acclimation period. During 5 days of week 3, dexamethasone (DEX) and the test substances oleic acid and palmitic acid were orally administered in the morning and 5% OVA solution was inhaled in the afternoon. The test substance was orally administered in an amount of 28 μL per weight (g) of the experimental animal, and OVA for sensitization was administered in a constant amount regardless of the weight. After 5 days of administration, autopsy was performed the next day. Immunoglobulin E (IgE) is a type of protein called antibody that plays an important role in allergic reactions. When IgE is exposed to a certain substance, the immune system begins to produce IgE in order to protect the body. […] 50 μL of a stop solution was added to each well, and the absorbance at 450 nm was measured.

[1] = tested on: eosinophils, mucus and epithelial hyperplasia; test: H&E staining of lung tissue, OVA-induced asthma; assay type: in vivo, BALB/c mice; conditions: 5 days, vs OVA-sensitized group
Protocol: In test groups, the animals determined to be healthy during the acclimation period were ranked by measuring the weight, and were randomly grouped so that the average weight of each group was uniform. The animals were divided into a total of 9 groups: a control group; a control group with OVA-induced asthma; a positive control group; groups administered with each of 50 mg/kg, 125 mg/kg and 250 mg/kg of oleic acid; and groups administered with each of 5 mg/kg, 25 mg/kg and 50 mg/kg of palmitic acid. The animals were sensitized via intraperitoneal injection of OVA once a week for 2 weeks after the acclimation period. During 5 days of week 3, dexamethasone (DEX) and the test substances oleic acid and palmitic acid were orally administered in the morning and 5% OVA solution was inhaled in the afternoon. The test substance was orally administered in an amount of 28 μL per weight (g) of the experimental animal, and OVA for sensitization was administered in a constant amount regardless of the weight. After 5 days of administration, autopsy was performed the next day. Storage of tissue: ½ of the autopsy tissue was frozen quickly in liquid nitrogen, stored in an ultralow-temperature freezer or liquid nitrogen container (about −75 ° C.), and used for PCR/Western blotting, and the remaining ½ was stored in 10% formalin solution and used for histopathology and immunohistochemistry (IHC). […]

Row | Compound | quantity of IgE (IgE; palmitic acid 5, 25, 50 mg/kg oral, FIG. 14) | eosinophils, mucus and epithelial hyperplasia (H&E staining) ([1]; palmitic acid 5, 25, 50 mg/kg oral, FIG. 16) | quantity of IgE (IgE; oleic acid 50, 125, 250 mg/kg oral, FIG. 13) | eosinophils, mucus and epithelial hyperplasia (H&E staining) ([1]; oleic acid 50, 125, 250 mg/kg oral, FIG. 15)
1 | CCCCCCCCCCCCCCCC(=O)O [palmitic acid] | dose-dependently decreased | dose-dependently decreased | – | –
2 | CCCCCCCC/C=C\CCCCCCCC(=O)O [oleic acid] | – | – | dose-dependently decreased | dose-dependently decreased
